Series [1] in a line: Stability of ^18F-TFB (radio-TLC and anion chromatography HPLC). Format: physicochemical. Conditions: NaBF4 stock solution stored for 7 month at room temperature. The method, then:
The product ^18F-TFB was analyzed for radiochemical purity by both radio-TLC (MeOH, Rf=0.8-0.85) and anion chromatography HPLC with radioactivity detector (Dionex IC-2100, AS19 analytical column: 4.7×150 mm; eluent: 35 mM KOH; sample volume: 25.L; flow rate: 1 mL/min; retention times: 7.6 min for ^18F-TFB, […]). Chemical purity and specific activity were analyzed by anion chromatography HPLC (retention times: 3.5 min for fluoride, 4.3 min for chloride, and 7.6 min for BF4—). Residual organic solvents were analyzed by GC (helium carrier gas flow at 10 cc/min through a MXTWAX column (Restek, Bellefonte, Pa., 0.53 mm ID, 30 m length)).
After the synthesis, a sample was diluted with water for the analysis. With the eluent of methanol on silica gel plate, purities of >98% were obtained on the radio-TLC scanner.
^18F-TFB was prepared and formulated in sterile 0.9% NaCl under cGMP conditions as previously described (12). Decay-corrected radiochemical yields of 32±2% and radiochemical purities (RCPs) >98% were obtained. Specific radioactivity of 2.2±0.9 GBq/μmol was achieved from starting ^18F-fluoride radioactivity of 20-31 GBq. In vitro RCP remained >96% up to 8 h at room temperature.

The test system of the next series is NIS. To be noted: reference (21); read-out: IC50 for inhibition of iodine uptake by NIS in thyroid; cited from earlier work.

Molecules are shown by their SMILES.

Consider 2 compounds from patent publication US11532406B2, “High specific activity preparation of F-18 tetrafluoroborate” (Mayo Foundation for Medical Education and Research, priority 2016, dated 2022).

In the case of `F[B-](F)(F)F.[Na+]` [NaBF4, reference compound], the “TFB decayed (HPLC)” value in series [1] is 50%. As for `F[B-](F)(F)F` [TFB, tetrafluoroborate], the IC50 in the series with NIS was 0.1 to 1 µM.

The IC50 is the concentration needed to halve the response being measured.
